The target of test [1] is Cannabinoid receptor 2 (Homo sapiens, UniProt P34972). In words: Displacement of [3H]-CP-55,940 from recombinant human CB2R expressed in HEK293 cell membranes after 90 mins. Also on record: species or system Cell membrane. For orientation: In a radioligand displacement assay an active substance lowers the binding of a labelled ligand.
For test [2], the target named is Cannabinoid receptor 1 (Homo sapiens, UniProt P21554). Put plainly: Displacement of [3H]-CP-55,940 from recombinant human CB1R expressed in HEK293 cell membranes after 90 mins. Further details: species or system Cell membrane.
Cannabinoid receptor 1, sequence (P21554 whole entry): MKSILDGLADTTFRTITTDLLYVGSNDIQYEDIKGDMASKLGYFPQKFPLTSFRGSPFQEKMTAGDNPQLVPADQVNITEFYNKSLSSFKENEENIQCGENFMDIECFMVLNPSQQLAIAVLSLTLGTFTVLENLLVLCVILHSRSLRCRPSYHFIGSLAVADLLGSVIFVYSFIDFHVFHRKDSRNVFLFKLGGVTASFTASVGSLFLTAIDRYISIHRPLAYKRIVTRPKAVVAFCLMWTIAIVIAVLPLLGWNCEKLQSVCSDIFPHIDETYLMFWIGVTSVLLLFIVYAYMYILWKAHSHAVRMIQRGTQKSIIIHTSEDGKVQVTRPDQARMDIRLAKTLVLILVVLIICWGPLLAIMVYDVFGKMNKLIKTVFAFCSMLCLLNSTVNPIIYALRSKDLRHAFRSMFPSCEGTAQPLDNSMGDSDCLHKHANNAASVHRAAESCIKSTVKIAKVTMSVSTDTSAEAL

Cannabinoid receptor 2, sequence (P34972 whole entry): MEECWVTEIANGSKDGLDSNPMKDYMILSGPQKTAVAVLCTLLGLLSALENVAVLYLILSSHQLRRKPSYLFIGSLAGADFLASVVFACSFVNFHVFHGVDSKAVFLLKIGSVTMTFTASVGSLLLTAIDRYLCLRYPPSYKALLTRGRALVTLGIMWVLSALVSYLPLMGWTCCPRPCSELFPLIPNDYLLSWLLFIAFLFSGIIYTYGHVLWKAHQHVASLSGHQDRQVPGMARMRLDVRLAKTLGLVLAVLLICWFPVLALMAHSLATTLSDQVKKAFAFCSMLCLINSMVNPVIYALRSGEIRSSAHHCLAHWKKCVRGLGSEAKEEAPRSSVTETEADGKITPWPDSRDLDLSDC

A word on the IC50: it is the concentration at which inhibition is half-maximal. By Ki is commonly meant a measure of affinity in units of concentration, obtained from inhibition or displacement. On to `CCCc1cc(O)c2c(c1)OC(C)(C)[C@@H]1CCC(CO)=C[C@@H]21`, for which, in test [1], the half-maximal inhibitory concentration (IC50) was determined as 0.0298 µM and the inhibition constant Ki is 0.0047 µM. Also, in test [2], the half-inhibitory concentration (IC50) was 0.0227 µM and the Ki came out at 0.0025 µM.

As to `CCCc1cc(O)c2c(c1)OC(C)(C)[C@@H]1CCC(C(=O)O)=C[C@@H]21`, the results for the half-inhibitory concentration (IC50) in test [1] and in test [2] were 3.72 µM and 1.68 µM, respectively. The Ki in test [1] worked out at 0.59 µM; in test [2], 0.187 µM.

With `CCCc1cc(O)c2c(c1)OC(C)(C)[C@@H]1C[C@H](O)C(C)=C[C@@H]21`, in test [1], the IC50 turned out to be 0.808 µM and the Ki is 0.128 µM. Further, in test [2], the IC50 stood at 0.23 µM and the Ki amounted to 0.0256 µM.

Take `CCCc1cc(O)c2c(c1)OC(C)(C)[C@@H]1C[C@@H](O)C(C)=C[C@@H]21`: in test [1], the IC50 is over 10 µM and the inhibition constant (Ki) is over 10 µM. Besides, in test [2], the IC50 was over 10 µM and the Ki is over 10 µM.

For `CCCc1cc(O)c2c(c1)OC(C)(C)[C@@H]1CCC(C)=C[C@@H]21` [TETRAHYDROCANNABIVARIN], in test [1], the IC50 worked out at 0.0176 µM and the inhibitory constant (Ki) came out at 0.0028 µM. In test [2], the IC50 came out at 0.0131 µM and the Ki amounted to 0.0015 µM.

The record behind these values is ChEMBL document CHEMBL4665697, “Synthesis of the Major Mammalian Metabolites of THCV” (J Nat Prod, 2020).
